For data set [1], the system named is isolated guinea pig trachea. In words: In vitro trachea relaxing activity (spontaneous tone in isolated trachea, method of Luduena). Format: cell-based. Particulars: Cavia porcellus, relative to maximum relaxation by noradrenaline 0.3 mcg/ml; for activity at 30 µg/mL: 30 mcg/ml. The procedure:
The platelet antiaggregation activity was determined in vitro using platelet rich rabbit plasma and arachidonic acid (50 mcg/ml) as aggregation inducing agent. The results are given for tracheal relaxation as percentage inhibition of the tracheal tone relative to the maximum relaxation induced by noradrenaline (0.3 mcg/ml) and for the platelet aggregation as a percentage of the maximum effect observed with the proaggregation agent.

Data set [2] can be described thus: Mortality rate in the mouse after a single oral dose of 1600 mg/kg. The following applies: in vivo, single oral dose 1600 mg/kg. The procedure:
Likewise, to complete the superficial pharmacological profile, a check was made of the mortality rate in the mouse after oral administration of a single dose of 1600 mg/kg of each of the synthesized compounds (See Table 1).

The subject of a further data set is rats. In words: Diuretic and saluretic activity (urine volume and electrolyte excretion over 6 h), technique of Lipschits et al. Format: in vivo. The following applies: rat; for response vs control in vivo at 20 mg/kg: 20 mg/kg po; for response vs control in vivo at 25 mg/kg: 25 mg/kg po; for response vs control in vivo at 10 mg/kg: 10 mg/kg po; for response vs control in vivo at 40 mg/kg: 40 mg/kg po. On the procedure: The synthesized compounds were, therefore, subjected a pharmacological screening to evaluate a possible diuretic and salt excreting activity. Thus, an acute dose of each of the products of synthesis (20 or 25 mg/kg) was administered to rats and the amount of urine and the excretion of electrolytes was measured, following the technique described by Lipschits et al., with certain modifications (J. Pharmacol. Exp.Ther. 1943-79; 97-110).
The volume (ml/kg/6 h), the pH and the excretion of sodium, potassium and chloride ions (mEq/kg/6 h) were determined on the urine quantitatively collected over 6 hours, using triamterene and hydrochlorothiazide as reference diuretics.

The mark [3] stands for this setting: (N) = not statistically significant vs control, read-out: Cl excretion, treated group/control group ratio.
Where [4] appears, read: (N) = not statistically significant vs control, read-out: K excretion, treated group/control group ratio.
[5] abbreviates: (N) = not statistically significant vs control, read-out: Na excretion, treated group/control group ratio.
Where [6] appears, read: (N) = not statistically significant vs control, read-out: Na/K.
Setting [7] is: (N) = not statistically significant vs control, read-out: Volume urine, treated group/control group ratio.
Setting [8] is: read-out: Cl excretion, treated group/control group ratio.
[9] abbreviates: read-out: K excretion, treated group/control group ratio.
Setting [10] is: read-out: Na excretion, treated group/control group ratio.
Where [11] appears, read: read-out: Volume urine, treated group/control group ratio.

Read-outs that look alike come from different tables or passages of the source.

On to `CCc1nc2c(nc1C)C(NN)=NS(=O)(=O)N2CC`, for which the activity at 30 µg/mL in data set [1] came to 72%.
In turn, `CCc1nc2c(nc1CC)N(CC)S(=O)(=O)N=C2N` [1,6,7-triethyl, 4-amino-1,6,7-triethylpyrazino[2,3-c]-1,2,6-thiadiazine 2,2-dioxide] gave a mortality in data set [2] of 50%. In addition, the response vs control in vivo at 20 mg/kg in the data set with rats (setting [3]) is 216%; in the data set on rats (setting [4]) it was 127%; in the data set with rats (setting [5]), 198%; in the data set on rats (setting [6]), 156%; with rats (setting [7]), 133%.
For `CCc1nc2c(nc1C)N(CC)S(=O)(=O)N=C2N` [1,6-diethyl-7-methyl, 4-amino-1,6-diethyl-7-methylpyrazino[2,3-c]-1,2,6-thiadiazine 2,2-dioxide], the response vs control in vivo at 20 mg/kg in the data set with rats (setting [3]) turned out to be 89%; in the data set with rats (setting [4]), 91%; in the data set on rats (setting [5]), 56%; in the data set with rats (setting [6]), 62%; in the data set with rats (setting [7]), 104%. Besides, the activity at 30 µg/mL in data set [1] was found to be 95%.
On to `CCc1nc2c(nc1C)C(NC)=NS(=O)(=O)N2CC` [1,7-diethyl-4-(methylamino)-6-methyl, 1,7-diethyl-4-(methylamino)-6-methylpyrazino[2,3-c]-1,2,6-thiadiazine 2,2-dioxide], for which the response vs control in vivo at 20 mg/kg is 424% in the data set on rats (setting [3]); 155% with rats (setting [4]); 344% in the data set with rats (setting [5]); 156% with rats (setting [6]); 139% in the data set on rats (setting [7]). Also, the activity at 30 µg/mL in data set [1] amounted to 75%.
In data set [2], `CCc1nc2c(nc1C)C(N)=NS(=O)(=O)N2CC` [1,7-diethyl-6-methyl, 4-amino-1,7-diethyl-6-methylpyrazino[2,3-c]-1,2,6-thiadiazine 2,2-dioxide] showed a mortality of 37.5%. For the same compound, the response vs control in vivo at 25 mg/kg with rats (setting [3]) amounted to 787%; in the data set with rats (setting [4]), 179%; in the data set with rats (setting [5]), 823%; with rats (setting [7]), 197%; in the data set on rats (read-out: Na/K), 460%.
The compound `Cc1nc2c(nc1C)N(CCO)S(=O)(=O)N=C2N` [1-(2-hydroxyethyl)-6,7-dimethyl, 4-amino-1-(2-hydroxyethyl)-6,7-dimethylpyrazino[2,3-c]-1,2,6-thiadiazine 2,2-dioxide] registered a mortality in data set [2] of 0%. Also, the response vs control in vivo at 25 mg/kg in the data set on rats (setting [3]) is 141%; with rats (setting [4]) it was 189%; in the data set with rats (setting [5]), 203%; with rats (setting [7]), 106%; with rats (read-out: Na/K), 107%.
Compound `Cc1nc2c(nc1C)N(CCN1CCOCC1)S(=O)(=O)N=C2N` [1-(2-morpholinoethyl)-6,7-dimethyl, 4-amino-1-(2-morpholinoethyl)-6,7-dimethylpyrazino[2,3-c]-1,2,6-thiadiazine 2,2-dioxide] came in with a mortality in data set [2] of 85%. Moreover, the response vs control in vivo at 25 mg/kg in the data set with rats (setting [3]) stood at 102%; in the data set on rats (setting [4]), 112%; with rats (setting [5]), 246%; in the data set with rats (setting [7]) it was 108%; with rats (read-out: Na/K) it was 220%.
`CCOC(=O)CN1c2nc(-c3ccccc3)cnc2C(N)=NS1(=O)=O` [1-[(2-ethoxycarbonyl)-methyl]-7-phenyl, 4-amino-1-[(ethoxycarbonyl)methyl]-7-phenylpyrazino[2,3-c]-1,2,7-thiadiazine 2,2-dioxide] returned an activity at 30 µg/mL in data set [1] of 72%.
In turn, `CCN1c2nc(C(F)(F)F)c(C(F)(F)F)nc2C(N)=NS1(=O)=O` [1-ethyl-6,7-bis(trifluoromethyl), 4-amino-1-ethyl-6,7-bis(trifluoromethyl)pyrazino[2,3-c]-1,2,6-thiadiazine 2,2-dioxide] registered a mortality in data set [2] of 100%. For the same compound, the response vs control in vivo at 25 mg/kg in the data set on rats (setting [3]) came to 112%; in the data set on rats (setting [4]), 99%; with rats (setting [5]), 129%; in the data set with rats (setting [7]) it was 128%; with rats (read-out: Na/K) it was 130%.
The compound `CCCN1c2nc(CC)c(C)nc2C(N)=NS1(=O)=O` [1-ethyl-6-methyl-1-propyl, 4-amino-7-ethyl-6-methyl-1-propylpyrazino[2,3-c]-1,2,6-thiadiazine 2,2-dioxide] registered a mortality in data set [2] of 40%. Further, the response vs control in vivo at 20 mg/kg in the data set on rats (setting [3]) amounted to 530%; in the data set with rats (setting [4]), 172%; in the data set on rats (setting [5]), 502%; with rats (setting [6]), 292%; in the data set with rats (setting [7]) it was 154%.
Regarding `CCCc1nc2c(nc1C)C(N)=NS(=O)(=O)N2CC` [1-ethyl-6-methyl-7-propyl, 4-amino-1-ethyl-6-methyl-7-propylpyrazino[2,3-c]-1,2,6-thiadiazine 2,2-dioxide], the mortality in data set [2] worked out at 50%. Further, the response vs control in vivo at 20 mg/kg in the data set with rats (setting [3]) turned out to be 176%; with rats (setting [4]), 123%; in the data set on rats (setting [5]), 156%; in the data set with rats (setting [6]) it was 127%; with rats (setting [7]), 109%.
With `CCN1c2nc(-c3ccccc3)cnc2C(N)=NS1(=O)=O` [1-ethyl-7-phenyl, 4-amino-1-ethyl-7-phenylpyrazino[2,3-c]-1,2,6-thiadiazine 2,2-dioxide], the response vs control in vivo at 20 mg/kg with rats (setting [3]) worked out at 136%; in the data set with rats (setting [4]), 140%; with rats (setting [5]), 131%; with rats (setting [6]) it was 94%; in the data set on rats (setting [7]), 121%. In data set [1], the activity at 30 µg/mL came to 95%.
`Cc1nc2c(nc1C)N(CCN(C(C)C)C(C)C)S(=O)(=O)N=C2N` [4-amino-1-[2-(N,N-diisopropylamino)ethyl]-6,7-dimethylpyrazino[2,3-c]-1,2,6-thiadiazine 2,2-dioxide]: the mortality in data set [2] came out at 62%. The response vs control in vivo at 25 mg/kg was 156% with rats (setting [3]); 94% with rats (setting [4]); 193% in the data set on rats (setting [5]); 84% in the data set on rats (setting [7]); 205% in the data set with rats (read-out: Na/K).
In the case of `CCN1c2nc(C)c(Br)nc2C(N)=NS1(=O)=O` [6-bromo-1-ethyl-7-methyl, 4-amino-6-bromo-1-ethyl-7-methylpyrazino[2,3-c]-1,2,6-thiadiazine 2,2-dioxide], in data set [1], the activity at 30 µg/mL is 88%.
On to `Nc1cc(-c2ccncc2)c[nH]c1=O` [Amrinone, reference compound], for which, in data set [1] (3 mcg/ml), the activity at 3 µg/mL came out at 65%.
On to `NS(=O)(=O)c1cc2c(cc1Cl)NCNS2(=O)=O` [Hydrochlorothiazide, reference compound], for which the response vs control in vivo at 10 mg/kg turned out to be 577% with rats (setting [8]); 217% in the data set on rats (setting [9]); 668% with rats (setting [10]); 308% in the data set with rats (read-out: Na/K); 166% in the data set on rats (setting [11]). In addition, the response vs control in vivo at 40 mg/kg was determined as 626% in the data set with rats (setting [8]); 265% in the data set on rats (setting [9]); 773% in the data set with rats (setting [10]); 292% in the data set with rats (read-out: Na/K); 179% in the data set on rats (setting [11]).
Consider `Nc1nc(N)c2nc(-c3ccccc3)c(N)nc2n1` [Triamterene, reference compound], for which the response vs control in vivo at 20 mg/kg with rats (setting [3]) amounted to 237%; with rats (setting [4]) it was 34%; in the data set with rats (setting [5]), 579%; with rats (setting [7]) it was 145%. The response vs control in vivo at 25 mg/kg came to 260% in the data set with rats (setting [3]), 36% with rats (setting [4]), 596% in the data set with rats (setting [5]) and 165% in the data set with rats (setting [7]).

The values above are taken from patent US5580869A, “1N substituted pyrazino[2,3-c]-1,2,6-thiadiazine 2,2-dioxides” (Prodesfarma, S.A., priority 1992, dated 1996).
